Laboratory results as given in the kinase profiling compilation of Christmann-Franck et al. (2016).

Assays:
Test in all cases: KINOMEscan competition binding
Conditions in all cases: compound 10.0 µM; call rule not given here
BRSK2 (human) = BRSK2 (human) (UniProt Q8IWQ3)
CDK2 (human) = CDK2 (human) (UniProt P24941)
FLT1 (human) = FLT1 (human) (UniProt P17948)
KDR (human) = KDR (human) (UniProt P35968)
MAPK8 (human) = MAPK8 (human) (UniProt P45983)
NLK (human) = NLK (human) (UniProt Q9UBE8)
STK38L (human) = STK38L (human) (UniProt Q9Y2H1)
Chain of STK38L (human) (Q9Y2H1 whole entry, looked up): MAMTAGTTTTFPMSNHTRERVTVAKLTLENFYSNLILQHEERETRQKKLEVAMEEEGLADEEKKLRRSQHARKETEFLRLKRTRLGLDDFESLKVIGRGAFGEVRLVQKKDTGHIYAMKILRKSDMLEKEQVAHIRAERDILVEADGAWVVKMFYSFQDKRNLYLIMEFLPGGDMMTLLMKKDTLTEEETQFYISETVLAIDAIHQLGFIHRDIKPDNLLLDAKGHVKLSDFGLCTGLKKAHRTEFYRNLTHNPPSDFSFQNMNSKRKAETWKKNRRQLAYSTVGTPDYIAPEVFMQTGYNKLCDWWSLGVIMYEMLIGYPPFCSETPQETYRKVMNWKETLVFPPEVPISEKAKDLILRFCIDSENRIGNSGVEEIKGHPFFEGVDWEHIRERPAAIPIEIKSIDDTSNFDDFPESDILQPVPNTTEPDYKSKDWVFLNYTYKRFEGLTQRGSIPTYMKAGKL

TEK (human) = TEK (human) (UniProt Q02763)
TNNI3K (human) = TNNI3K (human) (UniProt Q59H18)
ABL2 (human) = ABL2 (human) (UniProt P42684)
ACVR2B (human) = ACVR2B (human) (UniProt Q13705)
AURKC (human) = AURKC (human) (UniProt Q9UQB9)
BMP2K (human) = BMP2K (human) (UniProt Q9NSY1)
CAMK1D (human) = CAMK1D (human) (UniProt Q8IU85)
CSNK1D (human) = CSNK1D (human) (UniProt P48730)
CSNK1E (human) = CSNK1E (human) (UniProt P49674)
DAPK3 (human) = DAPK3 (human) (UniProt O43293)
[1] = test system: EIF2AK4 KD2 (human), Q9P2K8 [S808G]
EPHA5 (human) = EPHA5 (human) (UniProt P54756)
EPHA8 (human) = EPHA8 (human) (UniProt P29322)
Chain of EPHA8 (human) (P29322 whole entry, looked up): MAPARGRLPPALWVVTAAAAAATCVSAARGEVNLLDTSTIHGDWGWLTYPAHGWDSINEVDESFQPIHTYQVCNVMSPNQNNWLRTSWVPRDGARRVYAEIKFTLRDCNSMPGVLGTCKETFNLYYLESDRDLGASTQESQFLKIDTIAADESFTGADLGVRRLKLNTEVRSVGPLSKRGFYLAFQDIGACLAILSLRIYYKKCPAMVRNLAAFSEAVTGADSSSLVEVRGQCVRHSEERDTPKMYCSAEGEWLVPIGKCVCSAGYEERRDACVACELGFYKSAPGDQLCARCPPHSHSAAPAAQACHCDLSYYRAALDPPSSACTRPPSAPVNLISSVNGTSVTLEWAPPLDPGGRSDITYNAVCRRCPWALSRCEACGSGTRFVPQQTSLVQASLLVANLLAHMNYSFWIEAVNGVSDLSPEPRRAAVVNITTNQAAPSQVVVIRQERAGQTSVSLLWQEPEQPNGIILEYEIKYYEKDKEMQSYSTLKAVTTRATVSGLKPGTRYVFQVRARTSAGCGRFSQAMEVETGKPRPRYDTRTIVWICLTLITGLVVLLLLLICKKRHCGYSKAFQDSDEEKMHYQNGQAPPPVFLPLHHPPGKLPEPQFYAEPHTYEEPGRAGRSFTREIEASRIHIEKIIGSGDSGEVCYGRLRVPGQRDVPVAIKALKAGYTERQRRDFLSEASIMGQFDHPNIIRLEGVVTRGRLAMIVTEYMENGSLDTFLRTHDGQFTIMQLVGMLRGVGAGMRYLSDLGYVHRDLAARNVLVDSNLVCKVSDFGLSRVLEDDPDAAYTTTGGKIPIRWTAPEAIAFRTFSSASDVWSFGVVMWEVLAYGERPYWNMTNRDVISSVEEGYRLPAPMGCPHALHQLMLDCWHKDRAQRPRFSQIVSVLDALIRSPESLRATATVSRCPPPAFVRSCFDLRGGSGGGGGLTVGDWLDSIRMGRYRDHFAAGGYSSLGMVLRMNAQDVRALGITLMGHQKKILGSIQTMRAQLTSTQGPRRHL

EPHB1 (human) = EPHB1 (human) (UniProt P54762)
Chain of EPHB1 (human) (P54762 whole entry, looked up): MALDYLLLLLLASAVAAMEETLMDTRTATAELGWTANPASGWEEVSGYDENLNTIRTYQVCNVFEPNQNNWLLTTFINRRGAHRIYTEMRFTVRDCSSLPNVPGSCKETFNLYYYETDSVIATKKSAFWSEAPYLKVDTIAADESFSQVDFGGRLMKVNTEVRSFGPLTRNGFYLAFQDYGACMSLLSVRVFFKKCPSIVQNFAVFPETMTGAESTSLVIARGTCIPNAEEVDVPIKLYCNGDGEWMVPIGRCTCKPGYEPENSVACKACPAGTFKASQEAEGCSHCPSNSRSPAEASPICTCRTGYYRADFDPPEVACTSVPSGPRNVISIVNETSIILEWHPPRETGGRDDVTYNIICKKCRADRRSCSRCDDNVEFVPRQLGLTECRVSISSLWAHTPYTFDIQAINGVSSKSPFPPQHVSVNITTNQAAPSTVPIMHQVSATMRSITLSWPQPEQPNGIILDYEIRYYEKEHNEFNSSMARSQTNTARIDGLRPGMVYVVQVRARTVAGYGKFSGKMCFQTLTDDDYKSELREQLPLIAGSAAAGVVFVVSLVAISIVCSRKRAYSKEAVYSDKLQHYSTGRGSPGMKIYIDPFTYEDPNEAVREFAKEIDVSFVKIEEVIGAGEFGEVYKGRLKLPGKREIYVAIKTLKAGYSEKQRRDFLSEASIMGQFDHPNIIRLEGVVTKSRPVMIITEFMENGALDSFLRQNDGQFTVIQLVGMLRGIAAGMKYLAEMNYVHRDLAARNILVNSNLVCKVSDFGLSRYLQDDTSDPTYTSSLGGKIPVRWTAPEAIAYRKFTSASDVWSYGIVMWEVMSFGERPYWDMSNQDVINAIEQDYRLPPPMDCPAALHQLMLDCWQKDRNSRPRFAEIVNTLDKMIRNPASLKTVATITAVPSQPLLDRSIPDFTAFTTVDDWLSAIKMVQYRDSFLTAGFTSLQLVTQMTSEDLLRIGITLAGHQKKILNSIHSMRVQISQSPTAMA

MERTK (human) = MERTK (human) (UniProt Q12866)
NTRK2 (human) = NTRK2 (human) (UniProt Q16620)
PDGFRB (human) = PDGFRB (human) (UniProt P09619)
SRC (human) = SRC (human) (UniProt P12931)
STK17A (human) = STK17A (human) (UniProt Q9UEE5)
Chain of STK17A (human) (Q9UEE5 whole entry, looked up): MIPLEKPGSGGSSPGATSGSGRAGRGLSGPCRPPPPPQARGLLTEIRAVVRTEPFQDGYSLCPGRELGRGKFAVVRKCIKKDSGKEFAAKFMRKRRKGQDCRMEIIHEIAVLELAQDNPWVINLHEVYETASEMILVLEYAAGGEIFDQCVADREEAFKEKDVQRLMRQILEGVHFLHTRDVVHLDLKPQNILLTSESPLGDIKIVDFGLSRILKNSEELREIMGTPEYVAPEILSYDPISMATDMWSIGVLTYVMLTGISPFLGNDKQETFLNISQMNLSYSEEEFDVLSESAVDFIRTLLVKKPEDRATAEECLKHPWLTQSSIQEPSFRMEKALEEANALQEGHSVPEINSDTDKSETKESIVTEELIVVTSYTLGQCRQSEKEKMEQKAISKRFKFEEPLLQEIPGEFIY

STK4 (human) = STK4 (human) (UniProt Q13043)
CSNK1G2 (human) = CSNK1G2 (human) (UniProt P78368)
Chain of CSNK1G2 (human) (P78368 whole entry, looked up): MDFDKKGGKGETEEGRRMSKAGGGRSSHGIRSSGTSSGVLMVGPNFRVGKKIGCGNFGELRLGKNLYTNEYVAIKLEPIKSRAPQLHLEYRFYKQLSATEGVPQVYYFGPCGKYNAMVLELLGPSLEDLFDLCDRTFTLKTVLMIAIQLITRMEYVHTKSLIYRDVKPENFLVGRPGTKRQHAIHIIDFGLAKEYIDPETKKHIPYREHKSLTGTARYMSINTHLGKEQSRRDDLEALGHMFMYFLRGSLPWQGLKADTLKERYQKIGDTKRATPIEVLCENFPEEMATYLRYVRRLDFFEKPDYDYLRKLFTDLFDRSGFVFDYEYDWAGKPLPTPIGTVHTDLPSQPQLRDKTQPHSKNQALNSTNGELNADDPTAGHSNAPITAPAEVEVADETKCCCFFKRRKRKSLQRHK

STK11 (human) = STK11 (human) (UniProt Q15831)
ABL1 (human) = ABL1 (human) (UniProt P00519)
BMX (human) = BMX (human) (UniProt P51813)
FES (human) = FES (human) (UniProt P07332)
FRK (human) = FRK (human) (UniProt P42685)

Chain of NLK (human) (Q9UBE8 whole entry, looked up): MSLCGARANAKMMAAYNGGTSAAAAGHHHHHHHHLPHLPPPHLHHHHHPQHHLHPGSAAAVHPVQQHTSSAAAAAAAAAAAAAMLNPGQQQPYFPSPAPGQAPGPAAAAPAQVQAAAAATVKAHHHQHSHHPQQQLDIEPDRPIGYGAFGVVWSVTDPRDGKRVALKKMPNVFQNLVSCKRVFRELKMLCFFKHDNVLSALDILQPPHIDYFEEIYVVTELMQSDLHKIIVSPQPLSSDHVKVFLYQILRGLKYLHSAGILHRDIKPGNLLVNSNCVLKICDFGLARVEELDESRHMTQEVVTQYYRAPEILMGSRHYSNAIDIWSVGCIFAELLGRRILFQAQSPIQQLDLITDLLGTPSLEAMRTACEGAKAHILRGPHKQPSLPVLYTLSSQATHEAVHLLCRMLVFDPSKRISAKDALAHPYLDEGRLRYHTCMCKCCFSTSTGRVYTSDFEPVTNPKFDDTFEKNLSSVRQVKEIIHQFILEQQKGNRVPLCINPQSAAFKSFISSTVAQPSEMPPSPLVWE
Chain of BRSK2 (human) (Q8IWQ3 whole entry, looked up): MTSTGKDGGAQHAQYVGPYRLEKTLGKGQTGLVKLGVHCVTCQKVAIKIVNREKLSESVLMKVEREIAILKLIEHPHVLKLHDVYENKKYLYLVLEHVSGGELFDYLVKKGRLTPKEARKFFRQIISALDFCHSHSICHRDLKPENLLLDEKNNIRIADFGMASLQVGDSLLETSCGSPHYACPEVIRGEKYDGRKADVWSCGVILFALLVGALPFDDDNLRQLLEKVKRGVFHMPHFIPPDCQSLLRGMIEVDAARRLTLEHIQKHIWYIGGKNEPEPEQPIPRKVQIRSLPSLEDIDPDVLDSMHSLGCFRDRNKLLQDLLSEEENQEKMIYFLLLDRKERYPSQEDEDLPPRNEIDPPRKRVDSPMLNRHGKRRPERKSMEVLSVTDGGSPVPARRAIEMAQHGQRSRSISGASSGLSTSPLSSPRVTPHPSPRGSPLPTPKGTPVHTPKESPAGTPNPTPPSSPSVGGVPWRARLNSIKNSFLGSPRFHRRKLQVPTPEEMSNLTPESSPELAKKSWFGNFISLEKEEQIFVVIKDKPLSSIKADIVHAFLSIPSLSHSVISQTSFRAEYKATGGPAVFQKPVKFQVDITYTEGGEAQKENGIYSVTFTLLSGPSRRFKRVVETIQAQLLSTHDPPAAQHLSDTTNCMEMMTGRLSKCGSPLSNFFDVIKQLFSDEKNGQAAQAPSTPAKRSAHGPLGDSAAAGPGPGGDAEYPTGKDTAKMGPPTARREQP
Chain of MAPK8 (human) (P45983 whole entry, looked up): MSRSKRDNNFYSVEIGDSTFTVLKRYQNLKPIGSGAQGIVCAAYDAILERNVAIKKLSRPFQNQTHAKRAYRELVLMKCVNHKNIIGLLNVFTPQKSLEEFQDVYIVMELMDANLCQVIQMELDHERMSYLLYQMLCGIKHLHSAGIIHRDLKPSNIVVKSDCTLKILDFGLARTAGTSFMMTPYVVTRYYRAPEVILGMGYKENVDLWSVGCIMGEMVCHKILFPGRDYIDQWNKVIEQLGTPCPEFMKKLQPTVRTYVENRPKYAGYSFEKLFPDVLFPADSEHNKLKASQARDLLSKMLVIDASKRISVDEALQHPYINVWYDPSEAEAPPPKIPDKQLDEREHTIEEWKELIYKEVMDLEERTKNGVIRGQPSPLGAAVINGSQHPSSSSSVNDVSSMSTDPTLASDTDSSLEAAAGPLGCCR

kinase still bound, per cent of control (BRSK2 (human))	kinase still bound, per cent of control (CDK2 (human))	kinase still bound, per cent of control (MAPK8 (human))	kinase still bound, per cent of control (NLK (human))	kinase still bound, per cent of control (STK38L (human))	kinase still bound, per cent of control (TNNI3K (human))	kinase still bound, per cent of control (ABL2 (human))	kinase still bound, per cent of control (ACVR2B (human))	kinase still bound, per cent of control (CSNK1D (human))	kinase still bound, per cent of control (DAPK3 (human))	kinase still bound, per cent of control (EPHA8 (human))	kinase still bound, per cent of control (EPHB1 (human))	kinase still bound, per cent of control (STK17A (human))	kinase still bound, per cent of control (CSNK1G2 (human))	kinase still bound, per cent of control (STK11 (human))	SMILES	further results
no effect (inactive)	no effect (inactive)	no effect (inactive)	no effect (inactive)	no effect (inactive)	no effect (inactive)										CN(C)c1ccc(-c2cc3ncccc3c(NCCCCN)n2)cc1	kinase still bound, per cent of control (FLT1 (human)): no effect (inactive); kinase still bound, per cent of control (KDR (human)): no effect (inactive); kinase still bound, per cent of control (TEK (human)): no effect (inactive)
no effect (inactive)	no effect (inactive)			no effect (inactive)		0%	0%	0%	no effect (inactive)	0%	0%	no effect (inactive)			Cc1ccc(O)cc1Nc1ccnc(Nc2cccc(C(N)=O)c2)n1	kinase still bound, per cent of control (AURKC (human)): no effect (inactive); kinase still bound, per cent of control (BMP2K (human)): no effect (inactive); kinase still bound, per cent of control (CAMK1D (human)): no effect (inactive); kinase still bound, per cent of control (CSNK1E (human)): 0%; kinase still bound, per cent of control [1]: no effect (inactive); kinase still bound, per cent of control (EPHA5 (human)): 0%; kinase still bound, per cent of control (MERTK (human)): no effect (inactive); kinase still bound, per cent of control (NTRK2 (human)): no effect (inactive); kinase still bound, per cent of control (PDGFRB (human)): 0%; kinase still bound, per cent of control (SRC (human)): 0%; kinase still bound, per cent of control (STK4 (human)): no effect (inactive)
	no effect (inactive)	no effect (inactive)	no effect (inactive)		no effect (inactive)	0%	no effect (inactive)	no effect (inactive)	no effect (inactive)			no effect (inactive)	no effect (inactive)	0%	Cc1cc(Nc2cc(N3CCN(C)CC3)nc(Sc3ccc(NC(=O)C4CC4)cc3)n2)[nH]n1	
	no effect (inactive)		no effect (inactive)							no effect (inactive)	0%		no effect (inactive)	0%	NC(=O)Nc1sc(-c2ccc(F)cc2)cc1C(N)=O	kinase still bound, per cent of control (ABL1 (human)): no effect (inactive); kinase still bound, per cent of control (BMX (human)): no effect (inactive); kinase still bound, per cent of control (FES (human)): no effect (inactive); kinase still bound, per cent of control (FRK (human)): no effect (inactive)
